Experimental findings from US8592426B2, “Aryl-benzocycloalkyl amide derivatives” (Hoffmann—La Roche Inc., priority 2011, dated 2013) are described below.

In general, IC50 refers to the concentration at which inhibition is half-maximal. As a reminder, the Ki is a dissociation constant, usually derived from enzyme kinetics or from competition with a known ligand.

Assay [1] deals with T1, Bradykinin-1 receptor (Homo sapiens (Human), UniProt P46663). Put plainly: Calcium mobilization assay (FLIPR, Fluo-4) in GeneBLAzer Bradykinin (B1)-NFAT-bla CHO-K1 cells. Particulars: antagonist activity; CHO-K1 cells stably overexpressing the human bradykinin 1 receptor; read-out: Ca mobilization Assay IC50. The class given is cell-based. As for the experimental part: Calcium Mobilization Assay
GeneBLAzer® Bradykinin (B1)-NFAT-bla CHO-K1 cells (from Invitrogen) stably overexpressing the human bradykinin 1 receptor were cultured in DMEM (high glucose) supplemented with 10% dialysed FBS, 1% NEAA (non essential amino acids) 1% penicillin/streptomycin, 1% G418 and 0.1 mg/ml zeocin.
For the assay cells were grown overnight in 384-well black clear flat bottom polystyrene plates (Costar) at 37° C. at 5% CO2. After washing with DMEM, 20 mM Hepes, 2.5 mM probenecid, 0.1% BSA (DMEM assay buffer) cells were loaded with 4 μM Fluo-4 in the same DMEM assay buffer for 2 hours at 30° C. Excess dye was removed and cells were washed with DMEM assay buffer. 384-well compound plates were prepared with DMEM assay buffer/0.5% DMSO with or without various concentrations of test compounds. Usually compounds were tested for agonist and antagonist activity.
Test compounds were added to the assay plate and agonist activity was monitored as fluorescence for 80 seconds with a FLIPR (488 nm excitation; 510-570 nm emission; Molecular Devices). After 20-30 min. of incubation at 30° C., 20 nM […] (R&D; Roche) was added and fluorescence was monitored again for 80 seconds. Increases in intracellular calcium are reported as maximum fluorescence after agonist exposure minus basal fluorescence before exposure.

The target of assay [2] is T1, Bradykinin-1 receptor. The experiment in a line: Receptor binding assay (B1R Binding Assay), [3H]-Kallidin (Des Arg10, Leu9) displacement. As to conditions: membranes from CHO-K1 cells overexpressing Bradykinin-1 receptor; 6 nM radioligand. As for the experimental part: Binding assays were done with membranes from CHO-K1 cells overexpressing Bradykinin-1 receptor.
To determine non-specific binding 10 μM Lys-(Des-Arg^9)-Bradykinin (Bachem) was added. Membranes were harvested through GF/B (glass fiber filter; PerkinElmer) plates, equilibrated with 0.5% polyethylenimine, air dried at 50° C. for 2 h. Radioactivity was determined by counting in a topcounter (NXT Packard).

T1 sequence (P46663 whole entry): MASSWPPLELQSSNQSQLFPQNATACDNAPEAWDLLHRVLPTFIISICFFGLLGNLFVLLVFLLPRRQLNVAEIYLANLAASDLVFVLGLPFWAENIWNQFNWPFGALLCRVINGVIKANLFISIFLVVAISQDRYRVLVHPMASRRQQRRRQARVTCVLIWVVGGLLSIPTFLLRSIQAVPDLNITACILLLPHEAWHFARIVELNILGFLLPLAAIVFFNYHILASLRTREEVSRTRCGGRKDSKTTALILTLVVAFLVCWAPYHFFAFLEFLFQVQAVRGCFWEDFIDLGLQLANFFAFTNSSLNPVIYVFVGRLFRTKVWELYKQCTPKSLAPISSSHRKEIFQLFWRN

On to `COC(=O)c1ccccc1-c1ccc2c(c1)CCC2NC(=O)C1(NC(=O)C(F)(F)F)CC1` (racemic) [Example 1, (rac)-2-(1-{[1-(2,2,2-Trifluoro-acetylamino)-cyclopropanecarbonyl]-amino}-indan-5-yl)-benzoic acid methyl ester], for which, on Bradykinin-1 receptor [1], the 50% inhibitory concentration (IC50) was found to be 2250 nM. On Bradykinin-1 receptor [2], this compound showed an inhibition constant Ki of 2170 nM.

As for `O=C(NC1(C(=O)NC2CCc3cc(-c4cc(Cl)cc(Cl)c4OCC(F)F)ccc32)CC1)C(F)(F)F` (racemic) [Example 2, 1-(2,2,2-Trifluoro-acetylamino)-cyclopropanecarboxylic acid (rac)-{5-[3,5-dichloro-2-(2,2-difluoro-ethoxy)-phenyl]-indan-1-yl}-amide], the half-inhibitory concentration (IC50) on Bradykinin-1 receptor [1] was 76.8 nM. Moreover, affinity on Bradykinin-1 receptor [2] was put at a Ki of 146 nM.

Turning to `COC(=O)c1c(Cl)cccc1-c1ccc2c(c1)CCC2NC(=O)C1(NC(=O)C(F)(F)F)CC1` (racemic) [Example 3, (rac)-2-Chloro-6-(1-{[1-(2,2,2-trifluoro-acetylamino)-cyclopropanecarbonyl]-amino}-indan-5-yl)-benzoic acid methyl ester], the IC50 at Bradykinin-1 receptor [1] came out at 47.4 nM. Also, on Bradykinin-1 receptor [2], the Ki worked out at 123 nM.

`Cc1nc(-c2c(F)cc(Cl)cc2-c2ccc3c(c2)CCC3NC(=O)C2(NC(=O)C(F)(F)F)CC2)no1` (racemic) [Example 4, 1-(2,2,2-Trifluoro-acetylamino)-cyclopropanecarboxylic acid (rac)-{5-[5-chloro-3-fluoro-2-(5-methyl-[1,2,4]oxadiazol-3-yl)-phenyl]-indan-1-yl}-amide]: the 50% inhibitory concentration (IC50) on Bradykinin-1 receptor [1] is 2 nM. Also, the Ki on Bradykinin-1 receptor [2] was found to be 20.2 nM.

On to `O=C(NC1(C(=O)NC2CCCc3cc(-c4cc(Cl)cc(Cl)c4OCC(F)F)ccc32)CC1)C(F)(F)F` (racemic) [Example 9, 1-(2,2,2-Trifluoro-acetylamino)-cyclopropanecarboxylic acid{(rac)-6-[3,5-dichloro-2-(2,2-difluoro-ethoxy)-phenyl]-1,2,3,4-tetrahydro-naphthalen-1-yl}-amide], for which the IC50 at Bradykinin-1 receptor [1] stood at 82.6 nM. In addition, the Ki at Bradykinin-1 receptor [2] was found to be 236 nM.

As for `COC(=O)c1c(Cl)cccc1-c1ccc2c(c1)CCCC2NC(=O)C1(NC(=O)C(F)(F)F)CC1` (racemic) [Example 10, (rac)-2-Chloro-6-(5-{[1-(2,2,2-trifluoro-acetylamino)-cyclopropanecarbonyl]-amino}-5,6,7,8-tetrahydro-naphthalen-2-yl)-benzoic acid methyl ester], the IC50 at Bradykinin-1 receptor [1] amounted to 118 nM. This compound gave a Ki at Bradykinin-1 receptor [2] of 522 nM.

Consider `Cc1nc(-c2c(F)cc(Cl)cc2-c2ccc3c(c2)CCCC3NC(=O)C2(NC(=O)C(F)(F)F)CC2)no1` (racemic) [Example 11, 1-(2,2,2-Trifluoro-acetylamino)-cyclopropanecarboxylic acid{(rac)-6-[5-chloro-3-fluoro-2-(5-methyl-[1,2,4]oxadiazol-3-yl)-phenyl]-1,2,3,4-tetrahydro-naphthalen-1-yl}-amide], for which, at Bradykinin-1 receptor [1], the IC50 was found to be 4 nM. At Bradykinin-1 receptor [2], this compound showed an inhibition constant (Ki) of 41.6 nM.

Turning to `Cc1nc(-c2c(F)cc(Cl)cc2-c2cnc3c(c2)CCC3NC(=O)C2(NC(=O)C(F)(F)F)CC2)no1` (racemic) [Example 12, 1-(2,2,2-Trifluoro-acetylamino)-cyclopropanecarboxylic acid{(rac)-3-[5-chloro-3-fluoro-2-(5-methyl-[1,2,4]oxadiazol-3-yl)-phenyl]-6,7-dihydro-5H-[1]pyrindin-7-yl}-amide], at Bradykinin-1 receptor [1], the IC50 was 0.5 nM. In addition, the affinity on Bradykinin-1 receptor [2], expressed as Ki, was 4.4 nM.

For `Cn1nnc(-c2c(F)cc(Cl)cc2-c2cnc3c(c2)CCC3NC(=O)C2(NC(=O)C(F)(F)F)CC2)n1` (racemic) [Example 13, 1-(2,2,2-Trifluoro-acetylamino)-cyclopropanecarboxylic acid{(rac)-3-[5-chloro-3-fluoro-2-(2-methyl-2H-tetrazol-5-yl)-phenyl]-6,7-dihydro-5H-[1]pyrindin-7-yl}-amide], the concentration for half-maximal inhibition (IC50) at Bradykinin-1 receptor [1] came to 0.5 nM. For the same compound, the Ki on Bradykinin-1 receptor [2] came to 9.5 nM.

For `Cc1nc(-c2c(F)cc(Cl)cc2-c2ccc3c(c2)OCCC3NC(=O)C2(NC(=O)C(F)(F)F)CC2)no1` (racemic) [Example 14, 1-(2,2,2-Trifluoro-acetylamino)-cyclopropanecarboxylic acid{(rac)-7-[5-chloro-3-fluoro-2-(5-methyl-[1,2,4]oxadiazol-3-yl)-phenyl]-chroman-4-yl}-amide], the IC50 on Bradykinin-1 receptor [1] stood at 24.8 nM. Also, on Bradykinin-1 receptor [2], the Ki is 212 nM.

Consider `Cn1nnc(-c2c(F)cc(Cl)cc2-c2ccc3c(c2)OCCC3NC(=O)C2(NC(=O)C(F)(F)F)CC2)n1` (racemic) [Example 15, 1-(2,2,2-Trifluoro-acetylamino)-cyclopropanecarboxylic acid{(rac)-7-[5-chloro-3-fluoro-2-(2-methyl-2H-tetrazol-5-yl)-phenyl]-chroman-4-yl}-amide], for which the IC50 at Bradykinin-1 receptor [1] turned out to be 24.6 nM. On Bradykinin-1 receptor [2], this compound came in with a Ki of 170 nM.

In the case of `Cc1nc(-c2c(F)cc(Cl)cc2-c2cc(F)c3c(c2)CCC3NC(=O)C2(NC(=O)C(F)(F)F)CC2)no1` (racemic) [Example 16, 1-(2,2,2-Trifluoro-acetylamino)-cyclopropanecarboxylic acid{(rac)-5-[5-chloro-3-fluoro-2-(5-methyl-[1,2,4]oxadiazol-3-yl)-phenyl]-7-fluoro-indan-1-yl}-amide], the IC50 at Bradykinin-1 receptor [1] worked out at 0.5 nM. This compound also returned an inhibition constant Ki on Bradykinin-1 receptor [2] of 11 nM.

For the compound `Cc1nc(-c2c(F)cc(Cl)cc2-c2ccc3c(c2)CCC3(C)NC(=O)C2(NC(=O)C(F)(F)F)CC2)no1` (racemic) [Example 17, 1-(2,2,2-Trifluoro-acetylamino)-cyclopropanecarboxylic acid{(rac)-5-[5-chloro-3-fluoro-2-(5-methyl-[1,2,4]oxadiazol-3-yl)-phenyl]-1-methyl-indan-1-yl}-amide], at Bradykinin-1 receptor [1], the IC50 amounted to 0.6 nM. The compound also yielded a Ki at Bradykinin-1 receptor [2] of 5.9 nM.

With `Cn1nnc(-c2c(F)cc(Cl)cc2-c2ccc3c(c2)CCC3(C)NC(=O)C2(NC(=O)C(F)(F)F)CC2)n1` (racemic) [Example 18, 1-(2,2,2-Trifluoro-acetylamino)-cyclopropanecarboxylic acid{(rac)-5-[5-chloro-3-fluoro-2-(2-methyl-2H-tetrazol-5-yl)-phenyl]-1-methyl-indan-1-yl}-amide], the IC50 at Bradykinin-1 receptor [1] is 0.5 nM. The same compound came in with a Ki at Bradykinin-1 receptor [2] of 6.7 nM.

With `Cc1nc(-c2c(F)cc(Cl)cc2-c2ccc3c(c2)OCC3NC(=O)C2(NC(=O)C(F)(F)F)CC2)no1` (racemic) [Example 19, 1-(2,2,2-Trifluoro-acetylamino)-cyclopropanecarboxylic acid{(rac)-6-[5-chloro-3-fluoro-2-(5-methyl-[1,2,4]oxadiazol-3-yl)-phenyl]-2,3-dihydro-benzofuran-3-yl}-amide], the IC50 at Bradykinin-1 receptor [1] is 4.5 nM. On Bradykinin-1 receptor [2], this compound yielded a Ki of 33.3 nM.

As to `Cn1nnc(-c2c(F)cc(Cl)cc2-c2ccc3c(c2)OCC3NC(=O)C2(NC(=O)C(F)(F)F)CC2)n1` (racemic) [Example 20, 1-(2,2,2-Trifluoro-acetylamino)-cyclopropanecarboxylic acid{(rac)-6-[5-chloro-3-fluoro-2-(2-methyl-2H-tetrazol-5-yl)-phenyl]-2,3-dihydro-benzofuran-3-yl}-amide], on Bradykinin-1 receptor [1], the IC50 stood at 3.6 nM. This compound yielded a Ki on Bradykinin-1 receptor [2] of 24 nM.

With `Cc1nc(-c2c(F)cc(Cl)cc2-c2ccc3c(c2)SCC3NC(=O)C2(NC(=O)C(F)(F)F)CC2)no1` (racemic) [Example 21, 1-(2,2,2-Trifluoro-acetylamino)-cyclopropanecarboxylic acid{(rac)-6-[5-chloro-3-fluoro-2-(5-methyl-[1,2,4]oxadiazol-3-yl)-phenyl]-2,3-dihydro-benzo[b]thiophen-3-yl}-amide], the IC50 on Bradykinin-1 receptor [1] was determined as 2.3 nM. Moreover, the Ki on Bradykinin-1 receptor [2] was 9.5 nM.

`Cn1nnc(-c2c(F)cc(Cl)cc2-c2ccc3c(c2)SCC3NC(=O)C2(NC(=O)C(F)(F)F)CC2)n1` (racemic) [Example 22, 1-(2,2,2-Trifluoro-acetylamino)-cyclopropanecarboxylic acid{(rac)-6-[5-chloro-3-fluoro-2-(2-methyl-2H-tetrazol-5-yl)-phenyl]-2,3-dihydro-benzo[b]thiophen-3-yl}-amide]: the IC50 at Bradykinin-1 receptor [1] is 0.8 nM. Further, on Bradykinin-1 receptor [2], affinity was put at a Ki of 6.6 nM.

`Cc1nc(-c2c(F)cc(Cl)cc2-c2cc(F)c3c(c2)CCC3NC(=O)C2(NC(=O)OC(C)(C)C)CC2)no1` (racemic) [Example 31, (1-{(rac)-5-[5-Chloro-3-fluoro-2-(5-methyl-[1,2,4]oxadiazol-3-yl)-phenyl]-7-fluoro-indan-1-ylcarbamoyl}-cyclopropyl)-carbamic acid tert-butyl ester]: the 50% inhibitory concentration (IC50) at Bradykinin-1 receptor [1] was 135 nM. Besides, at Bradykinin-1 receptor [2], the inhibitory constant (Ki) is 475 nM.

For `Cc1nc(-c2c(F)cc(Cl)cc2-c2cc(F)c3c(c2)CCC3NC(=O)C2(N)CC2)no1` (racemic) [Example 32, 1-Amino-cyclopropanecarboxylic acid{(rac)-5-[5-chloro-3-fluoro-2-(5-methyl-[1,2,4]oxadiazol-3-yl)-phenyl]-7-fluoro-indan-1-yl}-amide], the half-maximal inhibitory concentration (IC50) on Bradykinin-1 receptor [1] is 95.6 nM. In addition, the Ki on Bradykinin-1 receptor [2] is 458 nM.
